Peptide text beside a SMILES is read from it. * marks the point of attachment. Cbz = O=C(OCc1ccccc1)*
Key:
[1] = system: AID-mCherry; test: HCS microscopy of AID-mCherry subcellular distribution after LMB / MG132 treatment; type: cell-based, human; conditions: for cytoplasmic AID-mCherry signal, response to treatment / nuclear AID-mCherry signal, increase relative to untreated cells: Ramos AID-mCherry transductants, LMB 50 ng/ml, MG132 50 μM; for nuclear AID-mCherry signal, increase relative to untreated cells: 0-4 hr
Description: We analyzed subcellular distribution of AID in the human B cell line, Ramos, transduced with a lentiviral construct expressing human AID fused to the mCherry fluorescent protein at the C-terminus. Ramos B cells express endogenous AID and actively diversify their Ig genes, so the pathways that regulate and respond to damage by AID are intact. Cells were analyzed by high content screening (HCS) microscopy (43), a […] approach that automatically quantifies signals per unit area (pixels) in each compartment of each cell (FIG. 1A). […] The cytoplasmic signal was unaffected by MG132 treatment, but diminished upon treatment with LMB or LMB+MG132, paralleling the increase in nuclear signal.
The human Burkitt lymphoma cell line, Ramos, was cultured in supplemented RPMI 1640 (Gibco), which contained 10% FBS, 2 mM L-glutamine, penicillin/streptomycin, 1× non-essential amino acids (Gibco), 1 mM sodium pyruvate, and 10 mM HEPES. Lentiviral transductions used 2×10^5 cells cultured in medium containing 8 μg/ml of polybrene. Following transduction, cells were cultured for 3-4 days and these recent transductants then sorted for mCherry+ to enrich for transduced cells, typically constituting 0.1-10% of the population. Cells were treated with leptomycin B (LMB; LC Laboratories) at 50 ng/ml and MG132 (Z-Leu-Leu-Leu-aldehyde; Sigma-Aldrich) at 50 μM. Viable cells were counted after trypan blue staining. Cell viability was confirmed by CellTiter-Glo® Luminescent Cell Viability Assay (Promega).
Cells were fixed in 3.7% formaldehyde at a density of 2×10^6 cells/ml and stained with whole cell stain (HCS CellMask, Invitrogen) and DAPI (0.2 μg/ml). Fixed cells were then washed, resuspended in PBS and spun down in a 96-well μclear microplate (Greiner Bio One) for imaging. Cells were imaged by Thermo Scientific ArrayScan VTI HCS reader, analyzing 3000-6000 cells in each treatment group. Cells with very low or very high mCherry signals were eliminated, gating based on the mock transduction control (low) and eliminating cells with signals more than 5 SD from the mean (high). The HCS Colocalization BioApplication protocol was used to determine nuclear and whole cell boundaries in individual cells as defined by DAPI and HCS CellMask, respectively, thereby defining the cytoplasmic region as the region between nuclear and whole cell boundaries. The average signal in the nuclear and cytoplasmic compartments was determined in individual cells by measuring the total intensity of mCherry signal divided by area within each compartment. The ratio of nuclear to cytoplasmic signal (N/C) was calculated as the ratio of the average signals of nuclear and cytoplasmic mCherry.
G1, S, and G2/M phase cells were distinguished by ranking DNA content as determined by total DAPI signal, and specific fractions of the population assigned to G1, S and G2/M phases (FIG. 16A). HCS results were expressed in terms of average signal, to ensure independence of cell size, which increases during cell cycle (FIG. 16).

[2] = system: Ramos B cells; test: Flow cytometry of cell cycle profile and fluorescent signal; type: cell-based, human; conditions: up to 4 hr of culture; Ramos AID-mCherry transductants
Description: To determine cell cycle distribution, cells were fixed, permeabilized with 0.5% Triton X-100, stained with DAPI (2 μg/ml) and analyzed by FACS.

Structure (SMILES) | cytoplasmic AID-mCherry signal, response to treatment [1] | nuclear AID-mCherry signal, increase relative to untreated cells [1] | effect on nuclear or cytoplasmic AID-mCherry signals ([1]; any phase of cell cycle) | effect of treatment on cell cycle [2] | drop of cytoplasmic AID-mCherry signal ([1]; all stages of cell cycle (G1, S, G2/M)) | N/C ratio of AID-mCherry signal ([1]; representative cell, 0.5 hr LMB (untreated 0.80))
CC(C)C[C@@H](C=O)NC(=O)[C@H](CC(C)C)NC(=O)[C@H](CC(C)C)NC(=O)OCc1ccccc1 [MG132, Z-Leu-Leu-Leu-aldehyde] (Cbz-Leu-Leu-Leu-aldehyde) | unaffected | unaffected | little effect | not perturbed significantly | – | –
CCC(=C/[C@H](C)C/C=C/C(C)=C/[C@@H](C)C(=O)[C@@H](C)[C@H](O)[C@@H](C)C/C(C)=C/C(=O)O)/C=C/[C@@H]1OC(=O)C=C[C@@H]1C [LMB, leptomycin B] | diminished | 1.5 fold | – | not perturbed significantly | 50% | 1.34
